Results taken from US20250059220A1, “SUBSTITUTED BENZOTHIOPHENE DERIVATIVES AND METHODS OF USE THEREOF” (Merck Sharp & Dohme LLC, priority 2021, published 2025).

Assays:
[1] = target: human PTPN2 (1-387) (Homo sapiens (Human), UniProt P17706); test: Human PTPN2 Biochemical Assay; conditions: DiFMUP substrate
How it was run: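 Human PTPN2 (1-387) preincubated 30 min at RT with compound (10-point 3-fold series) in Tris pH 7.4 buffer with 0.5 mM DTT, then DiFMUP substrate added for 1 h at RT. Fluorescence at ex 360/em 460 nm, normalised to no-enzyme and enzyme controls; EC50 from 4-parameter fit.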

[2] = target: human PTPN1 (1-435) (Homo sapiens (Human), UniProt P18031); test: Human PTPN1 Biochemical Assay; conditions: DiFMUP substrate, read-out: PTP1B IC50
human PTPN1 (1-435), sequence (P18031 whole entry): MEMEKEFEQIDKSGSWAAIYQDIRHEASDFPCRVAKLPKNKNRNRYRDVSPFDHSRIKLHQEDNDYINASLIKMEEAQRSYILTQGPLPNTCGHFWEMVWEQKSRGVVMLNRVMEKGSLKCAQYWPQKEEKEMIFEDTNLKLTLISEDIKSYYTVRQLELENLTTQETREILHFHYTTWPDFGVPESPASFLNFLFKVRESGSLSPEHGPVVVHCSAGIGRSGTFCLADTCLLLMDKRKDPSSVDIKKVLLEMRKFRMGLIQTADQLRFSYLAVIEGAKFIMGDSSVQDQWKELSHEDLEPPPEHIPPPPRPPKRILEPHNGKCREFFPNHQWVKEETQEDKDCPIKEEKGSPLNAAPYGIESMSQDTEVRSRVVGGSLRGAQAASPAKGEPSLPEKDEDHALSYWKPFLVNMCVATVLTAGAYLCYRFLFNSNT
How it was run: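 Read-out is DiFMUP hydrolysis fluorescence (360 nm excitation, 460 nm emission) after 1 h at room temperature, following 30 min enzyme–compound preincubation.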

human PTPN2 (1-387), sequence (P17706 other isoform, or with tags, fused parts or gaps): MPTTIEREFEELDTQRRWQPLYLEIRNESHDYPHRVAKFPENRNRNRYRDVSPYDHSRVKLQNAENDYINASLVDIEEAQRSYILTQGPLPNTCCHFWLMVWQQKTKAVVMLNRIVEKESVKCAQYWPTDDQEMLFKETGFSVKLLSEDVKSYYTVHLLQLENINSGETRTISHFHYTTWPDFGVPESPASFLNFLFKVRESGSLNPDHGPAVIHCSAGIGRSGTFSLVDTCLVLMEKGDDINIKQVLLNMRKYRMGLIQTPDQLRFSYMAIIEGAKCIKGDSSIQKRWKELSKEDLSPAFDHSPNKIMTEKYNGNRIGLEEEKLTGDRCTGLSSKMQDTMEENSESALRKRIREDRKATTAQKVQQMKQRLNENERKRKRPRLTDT

Row | IC50 [1] [nM] | IC50 [2] [nM] | SMILES
1 | 24700 | 2690 | O=C(Nc1ccc2c(Br)c(C(F)(F)P(=O)(O)O)sc2c1)c1ccccc1 [Compound 303, ((6-benzamido-3-bromobenzo[b]thiophen-2-yl)difluoromethyl)phosphonic acid]
2 | 3460 | 3140 | CC(NC(=O)c1ccc2sc(C(F)(F)P(=O)(O)O)c(Br)c2c1)c1cnccn1 (stereo not drawn) [Compound 103]
3 | 2590 | 1990 | O=C(NCc1cnn2ccccc12)c1ccc2sc(C(F)(F)P(=O)(O)O)c(Br)c2c1 [Compound 22]
4 | 359 | 323 | CS(=N)(=O)Cc1cc(OCCCC(F)(F)F)c2sc(C(F)(F)P(=O)(O)O)c(Br)c2c1 (stereo not drawn) [Compound 412]
5 | 91.9 | 74.4 | NC(=O)c1cc(OC[C@@H]2C[C@@H]2F)c2sc(C(F)(F)P(=O)(O)O)c(Br)c2c1 [Compound 378]
6 | 2.5 | 2.5 | N#Cc1c(C(F)(F)P(=O)(O)O)sc2c(OCCCS(N)(=O)=O)cc(-c3nc[nH]n3)cc12 [Compound 457, ((3-cyano-7-(3-sulfamoylpropoxy)-5-(1H-1,2,4-triazol-3-yl)benzo[b]thiophen-2-yl)difluoromethyl)phosphonic acid]
7 | 17000 | 12900 | N#Cc1ccc2c(C#N)c(C(F)(F)P(=O)(O)O)sc2c1 [Compound 301, ((3,6-dicyanobenzo[b]thiophen-2-yl)difluoromethyl)phosphonic acid]
8 | 3100 | 2310 | O=C(NCc1ccc(C(F)(F)F)nc1)c1ccc2sc(C(F)(F)P(=O)(O)O)c(Br)c2c1 [Compound 121]
9 | 54.6 | 133 | COc1ccc(COc2cc(C(N)=O)cc3c(Br)c(C(F)(F)P(=O)(O)O)sc23)cc1C(F)(F)F [Compound 361]
10 | 12.1 | 12.5 | NC(=O)c1cc(OCCC2CCNS2(=O)=O)c2sc(C(F)(F)P(=O)(O)O)c(Br)c2c1 (single isomer, unassigned) [Compound 462]
11 | 6500 | 9150 | O=C(Nc1cccc(CO)n1)c1ccc2sc(C(F)(F)P(=O)(O)O)c(Br)c2c1 [Compound 104]
12 | 7900 | 9050 | CN1CCCC(NC(=O)c2ccc3sc(C(F)(F)P(=O)(O)O)c(Br)c3c2)C1 (stereo not drawn) [Compound 58]
13 | 2160 | 1360 | COc1cccc(NC(=O)c2ccc3sc(C(F)(F)P(=O)(O)O)c(Br)c3c2)c1 [Compound 24]
14 | 46.7 | 94.3 | N#Cc1cc(Cl)ccc1COc1cc(C(N)=O)cc2c(Br)c(C(F)(F)P(=O)(O)O)sc12 [Compound 341]
15 | 77.7 | 65.8 | NC(=O)c1cc(OCCCNS(=O)(=O)C(F)(F)F)c2sc(C(F)(F)P(=O)(O)O)c(Br)c2c1 [Compound 334]
16 | 1470 | 2180 | N#Cc1c(C(F)(F)P(=O)(O)O)sc2ccc(C(=O)NCc3ncn[nH]3)cc12 [Compound 171]
17 | 98.7 | 112 | CCCCOc1cc(C(N)=O)cc2c(Br)c(C(F)(F)P(=O)(O)O)sc12 [Compound 240]

Row | IC50 [1] [nM] | IC50 [2] [nM] | SMILES
18 | 6.69 | 19.7 | N#Cc1c(C(F)(F)P(=O)(O)O)sc2c(OCCCC(F)(F)F)cc(C(N)=O)cc12 [Compound 424]
19 | 28.1 | 29.9 | CCC(=O)CCCOc1cc(C(N)=O)cc2c(Br)c(C(F)(F)P(=O)(O)O)sc12 [Compound 332]
20 | 4.87 | 11.9 | CS(=O)(=O)CCCOc1cc(C(N)=O)cc2c(C#N)c(C(F)(F)P(=O)(O)O)sc12 [Compound 421, ((5-carbamoyl-3-cyano-7-(3-(methylsulfonyl)propoxy)benzo[b]thiophen-2-yl)difluoromethyl)phosphonic acid]
21 | 1890 | 2130 | CC(NC(=O)c1ccc2sc(C(F)(F)P(=O)(O)O)c(Br)c2c1)c1ccc2c(c1)OCCO2 (stereo not drawn) [Compound 80]
22 | 2.5 | 16.4 | NC(=O)c1cc(OCc2ccc(-c3ccccc3)cc2)c2sc(C(F)(F)P(=O)(O)O)c(Br)c2c1 [Compound 346]
23 | 48 | 56.9 | CC1CCS(=O)(=O)C1CCOc1cc(C(N)=O)cc2c(Br)c(C(F)(F)P(=O)(O)O)sc12 (single isomer, unassigned) [Compound 393]
24 | 12.2 | 26 | O=C(NCc1cccnn1)c1cc(OCCCc2ccncc2)c2sc(C(F)(F)P(=O)(O)O)c(Br)c2c1 [Compound 267]
25 | 17.3 | 21.2 | CC1CCS(=O)(=O)C1CCOc1cc(C(N)=O)cc2c(Br)c(C(F)(F)P(=O)(O)O)sc12 (single isomer, unassigned) [Compound 395]
26 | 550 | 1390 | O=C(NCCC1CC1)c1ccc2sc(C(F)(F)P(=O)(O)O)c(Br)c2c1 [Compound 59]
27 | 2340 | 1720 | O=C(Nc1ccc(OCC2CCCO2)cc1)c1ccc2sc(C(F)(F)P(=O)(O)O)c(Br)c2c1 (stereo not drawn) [Compound 26]
28 | 2160 | 2380 | Cn1cc(CCNC(=O)c2ccc3sc(C(F)(F)P(=O)(O)O)c(Br)c3c2)c2ccccc21 [Compound 155]
29 | 9.7 | 11.5 | N#Cc1c(C(F)(F)P(=O)(O)O)sc2c(OCCCS(N)(=O)=O)cc(C(N)=O)cc12 [Compound 423]
30 | 8970 | 6920 | Cc1c(NC(=O)c2ccc3sc(C(F)(F)P(=O)(O)O)c(Br)c3c2)cccc1C(=O)N1CCCC1 [Compound 106]
31 | 904 | 638 | O=C(Nc1cccc(-c2cnco2)c1)c1ccc2sc(C(F)(F)P(=O)(O)O)c(Br)c2c1 [Compound 61]
32 | 13.7 | 21.7 | NC(=O)c1cc(OCc2ccc(C(F)(F)F)c(F)c2)c2sc(C(F)(F)P(=O)(O)O)c(Br)c2c1 [Compound 357]
33 | 111 | 155 | CC(C)CCOc1cc(C(N)=O)cc2c(Br)c(C(F)(F)P(=O)(O)O)sc12 [Compound 254]
34 | 80.7 | 38 | NC(=O)c1cc(OCC2C(F)(F)C23CCC3)c2sc(C(F)(F)P(=O)(O)O)c(Br)c2c1 (stereo not drawn) [Compound 294]

Row | SMILES | IC50 [1] [nM] | IC50 [2] [nM]
35 | N#Cc1cc(OCCCC(F)(F)F)c2sc(C(F)(F)P(=O)(O)O)c(Br)c2c1 [Compound 233, ((3-bromo-5-cyano-7-(4,4,4-trifluorobutoxy)benzo[b]thiophen-2-yl)difluoromethyl)phosphonic acid] | 146 | 77
36 | O=P(O)(O)C(F)(F)c1sc2c(OCCCC(F)(F)F)cc(-c3nc[nH]n3)cc2c1Br [Compound 232, ((3-bromo-5-(1H-1,2,4-triazol-3-yl)-7-(4,4,4-trifluorobutoxy)benzo[b]thiophen-2-yl)difluoromethyl)phosphonic acid] | 3.06 | 3.4
37 | COc1cccc(NC(=O)c2ccc3sc(C(F)(F)P(=O)(O)O)c(C#N)c3c2)c1 [Compound 5] | 896 | 1130
38 | O=P(O)(O)C(F)(F)c1sc2c(OCCCC(F)(F)F)cc(-c3nnc(C(F)(F)F)[nH]3)cc2c1Br [Compound 420, ((3-bromo-7-(4,4,4-trifluorobutoxy)-5-(5-(trifluoromethyl)-4H-1,2,4-triazol-3-yl)benzo[b]thiophen-2-yl)difluoromethyl)phosphonic acid] | 2.85 | 2.7
39 | C[C@@H](NC(=O)c1ccc2sc(C(F)(F)P(=O)(O)O)c(Br)c2c1)c1ncc(F)cn1 [Compound 182] | 5080 | 2650
